Data published in paper PMC1479381, “Uncharged isocoumarin-based inhibitors of urokinase-type plasminogen activator” (BMC Chemical Biology, 2006).
Counter-ions that a name gives are not always drawn.

Tests used:
[1] = molecular target: T1, human uPA (Homo sapiens, UniProt P00749); experiment: Kinetic inhibition of human urokinase, Spectrozyme UK substrate, initial rates at 405 nm; format: biochemical; conditions: for Ki: 0.1 M Tris, pH 8.8, 25°C, Spectrozyme UK 10 μM to 150 μM, read-out: Ki, dissociation constant for inhibition of human uPA; for fold improvement in Ki over compound 4d: compared with unsubstituted 4d
T1 construct: purchased Sigma/Aldrich, St. Louis, MO
Description: Human urokinase (Sigma/Aldrich, St. Louis, MO) and Spectrozyme UK (American Diagnostica, Stamford, CT) were used for the kinetic studies. Enzyme activity was routinely measured in 1 ml volumes of 0.1 M Tris, pH 8.8, Spectrozyme UK (10 μM to 150 μM) and 0.64 μg (3,770 units/mg protein) human urokinase. Reactions were monitored at 405 nm, 25°C, with a Perkin/Elmer Lambda S2 UV/vis spectrophotometer. Michaelis constants and Ki values were determined from initial rate data, measured at 8 to 10 substrate concentrations, by non-linear regression analysis with SigmaPlot's Enzyme Kinetics Module™ (Chicago, IL, USA).

SMILES | melting point | Ki [1] | fold improvement in Ki over compound 4d [1] | type of inhibition of uPA ([1]; kinetic studies)
O=c1oc(OCCBr)c(Cl)c2ccc([N+](=O)[O-])cc12 [Compound 4a, 3-(2-Bromoethoxy)-4-chloro-7-nitro-1H-isochromen-1-one] | 126 to 128 °C | 1800 ± 200 nM |  | 
O=c1oc(OCCCBr)c(Cl)c2ccc([N+](=O)[O-])cc12 [Compound 4b, 3-(3-Bromopropoxy)-4-chloro-7-nitro-1H-isochromen-1-one] | 131 to 134 °C | 2400 ± 200 nM | 4 fold | 
O=c1oc(OCCBr)c(Cl)c2ccccc12 [Compound 4c, 3-(2-Bromoethoxy)-4-chloro-1H-isochromen-1-one] | 81 to 82 °C | 14000 ± 1000 nM |  | 
O=c1oc(OCCCBr)c(Cl)c2ccccc12 [Compound 4d, 3-(3-Bromopropoxy)-4-chloro-1H-isochromen-1-one] | 95 to 97 °C | 9000 ± 1000 nM |  | simple competitive inhibition
O=c1oc(OCCCCBr)c(Cl)c2ccccc12 [Compound 4e, 3-(4-Bromobutoxy)-4-chloro-1H-isochromen-1-one] | 75 to 77 °C | 18000 ± 2000 nM |  | 
Br.N=C(N)SCCOc1oc(=O)c2ccccc2c1Cl [Compound 5c, 2-[2-(4-Chloro-1-oxo-1H-isochromen-3-yloxy)ethyl]isothiourea hydrobromide] | 168 to 170 °C | 33 ± 4 nM |  | 
Br.N=C(N)SCCCOc1oc(=O)c2ccccc2c1Cl [Compound 5d, 2-[3-(4-Chloro-1-oxo-1H-isochromen-3-yloxy)propyl]isothiourea hydrobromide] | 159 to 163 °C | 55 ± 3 nM |  | 
N=C(N)SCCCCOc1oc(=O)c2ccccc2c1Cl [Compound 5e, 2-[4-(4-Chloro-1-oxo-1H-isochromen-3-yloxy)butyl]isothiourea hydrobromide] |  | 140 ± 20 nM |  | 
Nc1ccc2c(Cl)c(OCCBr)oc(=O)c2c1 [Compound 6a, 7-Amino-3-(2-bromoethoxy)-4-chloro-1H-isochromen-1-one] | 134 to 136 °C | 12000 ± 1000 nM |  | 
Nc1ccc2c(Cl)c(OCCCBr)oc(=O)c2c1 [Compound 6b, 7-Amino-3-(3-bromopropoxy)-4-chloro-1H-isochromen-1-one] | 106 to 107 °C | 9500 ± 1000 nM |  | 
N=C(N)SCCOc1oc(=O)c2cc(N)ccc2c1Cl [Compound 7a, 2-[2-(7-amino-4-chloro-1-oxo-1H-isochromen-3-yloxy)ethyl]isothiourea hydrobromide] |  | 20 ± 3 nM |  | 
Br.N=C(N)SCCCOc1oc(=O)c2cc(N)ccc2c1Cl [Compound 7b, 2-[3-(7-Amino-4-chloro-1-oxo-1H-isochromen-3-yloxy)propyl]isothiourea hydrobromide] | 173 °C | 38 ± 5 nM |  | 
O=C(Nc1ccc2c(Cl)c(OCCBr)oc(=O)c2c1)c1ccccc1 [Compound 8a, N-[3-(2-Bromoethoxy)-4-chloro-1-oxo-1H-isochromen-7-yl]benzamide] | 214 to 216 °C | 1400 ± 200 nM |  | 
O=C(Nc1ccc2c(Cl)c(OCCCBr)oc(=O)c2c1)c1ccccc1 [Compound 8b, N-[3-(3-Bromopropoxy)-4-chloro-1-oxo-1H-isochromen-7-yl]benzamide] | 193 to 194 °C | 34 ± 2 nM | 300 fold | 
Br.N=C(N)SCCOc1oc(=O)c2cc(NC(=O)c3ccccc3)ccc2c1Cl [Compound 9a, 2-[2-(7-Benzamido-4-chloro-1-oxo-1H-isochromen-3-yloxy)ethyl]isothiourea hydrobromide] | 173 to 175 °C | 84 ± 7 nM |  | 
Br.N=C(N)SCCCOc1oc(=O)c2cc(NC(=O)c3ccccc3)ccc2c1Cl [Compound 9b, 2-[3-(7-Benzamido-4-chloro-1-oxo-1H-isochromen-3-yloxy]propyl)isothiourea hydrobromide] | 203 to 204 °C | 10 ± 8 nM |  | 
O=c1oc(OCCBr)cc2ccc([N+](=O)[O-])cc12 [Compound 10a, 3-(2-Bromoethoxy)-7-nitro-1H-isochromen-1-one] | 95 to 97 °C | 4200 ± 400 nM |  | 
O=c1oc(OCCCBr)cc2ccc([N+](=O)[O-])cc12 [Compound 10b, 3-(3-Bromopropoxy)-7-nitro-1H-isochromen-1-one] | 117 to 118 °C | 4300 ± 300 nM |  | 
O=C(c1c(OCCCBr)oc(=O)c2ccccc12)C(F)(F)F [Compound 10c, 3-(3-Bromopropoxy)-4-trifluoroacetyl-1H-isochromen-1-one] | 116 to 117 °C | 14000 ± 2000 nM |  | 
Nc1ccc2cc(OCCBr)oc(=O)c2c1 [Compound 11, 7-Amino-3-(2-bromoethoxy)-1H-isochromen-1-one] | > 280 °C | 65000 ± 9000 nM |  | 
